Assay [1] is described as follows: DRUGMATRIX: Sigma2 radioligand binding (ligand: [3H] Ifenprodil). The class given is cell membranes, Rattus norvegicus, Wistar, Brain, Membrane. To be noted: Not Active = under 50% inhibition at 10 µM.
Assay [2] deals with T1, D(4) dopamine receptor (Homo sapiens, UniProt P21917).
T1 sequence (P21917 whole entry): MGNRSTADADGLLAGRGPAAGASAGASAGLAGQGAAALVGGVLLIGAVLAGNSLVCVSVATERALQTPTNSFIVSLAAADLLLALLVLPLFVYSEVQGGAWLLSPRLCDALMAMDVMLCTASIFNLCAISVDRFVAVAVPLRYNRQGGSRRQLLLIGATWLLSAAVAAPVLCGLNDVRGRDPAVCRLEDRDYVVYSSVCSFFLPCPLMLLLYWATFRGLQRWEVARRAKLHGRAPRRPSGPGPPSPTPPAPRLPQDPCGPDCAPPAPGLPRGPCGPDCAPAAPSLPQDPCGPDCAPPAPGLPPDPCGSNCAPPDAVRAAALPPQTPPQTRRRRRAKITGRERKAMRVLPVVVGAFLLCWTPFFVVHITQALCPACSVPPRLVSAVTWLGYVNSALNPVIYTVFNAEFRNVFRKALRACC
The experiment in a line: DRUGMATRIX: Dopamine D4.2 radioligand binding (ligand: [3H] Spiperone). The class given is cell membranes, CHO-K1, Membrane. To be noted: cho-k1; Not Active = under 50% inhibition at 10 µM.

In assay [3] the target is T2, Alpha-2C adrenergic receptor (Homo sapiens, UniProt P18825).
T2 sequence (P18825 whole entry): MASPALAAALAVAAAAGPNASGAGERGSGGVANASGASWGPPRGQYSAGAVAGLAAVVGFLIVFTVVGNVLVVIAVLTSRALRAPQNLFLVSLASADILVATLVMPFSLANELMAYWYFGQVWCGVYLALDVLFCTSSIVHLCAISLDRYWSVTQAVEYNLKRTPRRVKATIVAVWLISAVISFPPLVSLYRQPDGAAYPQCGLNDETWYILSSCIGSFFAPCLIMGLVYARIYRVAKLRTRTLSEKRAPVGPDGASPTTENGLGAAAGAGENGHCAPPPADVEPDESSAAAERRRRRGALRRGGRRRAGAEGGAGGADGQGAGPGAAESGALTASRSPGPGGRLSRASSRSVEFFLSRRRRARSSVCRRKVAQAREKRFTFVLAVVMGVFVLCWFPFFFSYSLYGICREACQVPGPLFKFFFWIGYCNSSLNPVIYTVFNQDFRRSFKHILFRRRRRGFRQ
The experiment in a line: DRUGMATRIX: Adrenergic Alpha-2C radioligand binding (ligand: [3H] MK-912). The class given is cell membranes, Sf9, Membrane. The conditions noted are these: sf9.

In assay [4] the target is Vascular endothelial growth factor receptor 1 (Homo sapiens, UniProt P17948). The class given is cell-based. The conditions noted are these: huvec. Note: in other assays of this panel Not Active means under 50% inhibition at 10 µM.
The target in assay [5] is Sodium-dependent dopamine transporter (Homo sapiens, UniProt Q01959). The experiment in a line: DRUGMATRIX: Dopamine Transporter radioligand binding (ligand: [125I] RTI-55). The class given is cell membranes, CHO-K1, Membrane. The conditions noted are these: cho-k1; Not Active = under 50% inhibition at 10 µM.
Assay [6] addresses T3, Thromboxane-A synthase (Homo sapiens, UniProt P24557).
T3 sequence (P24557 whole entry): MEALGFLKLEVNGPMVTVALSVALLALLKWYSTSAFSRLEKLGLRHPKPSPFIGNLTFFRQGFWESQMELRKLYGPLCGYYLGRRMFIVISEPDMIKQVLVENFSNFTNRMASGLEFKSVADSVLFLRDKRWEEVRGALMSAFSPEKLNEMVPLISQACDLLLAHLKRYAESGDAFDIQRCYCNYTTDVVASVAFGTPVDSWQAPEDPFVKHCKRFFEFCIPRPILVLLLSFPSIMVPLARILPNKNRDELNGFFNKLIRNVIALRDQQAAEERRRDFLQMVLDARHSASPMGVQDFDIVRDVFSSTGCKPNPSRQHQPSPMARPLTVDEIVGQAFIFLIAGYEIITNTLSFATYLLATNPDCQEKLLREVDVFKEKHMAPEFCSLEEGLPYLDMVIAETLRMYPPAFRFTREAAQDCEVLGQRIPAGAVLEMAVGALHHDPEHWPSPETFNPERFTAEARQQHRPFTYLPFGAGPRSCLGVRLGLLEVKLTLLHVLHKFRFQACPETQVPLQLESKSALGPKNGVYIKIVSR
The experiment in a line: biochemical. The class given is tissue-based, Platelet. The conditions noted are these: platelet.

Assay [7] in a line: DRUGMATRIX: Leukotriene, BLT (LTB4) radioligand binding (ligand: [3H]LTB4). The class given is cell membranes, Membrane. The conditions noted are these: u-937; Not Active = under 50% inhibition at 10 µM.
In assay [8] the target is T4, Caspase-1 (Homo sapiens, UniProt P29466).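 Note: Caspase-1 enzyme inhibition assay with a peptide substrate; in other assays of this panel Not Active means under 50% inhibition at 10 µM.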
T4 sequence (P29466 whole entry): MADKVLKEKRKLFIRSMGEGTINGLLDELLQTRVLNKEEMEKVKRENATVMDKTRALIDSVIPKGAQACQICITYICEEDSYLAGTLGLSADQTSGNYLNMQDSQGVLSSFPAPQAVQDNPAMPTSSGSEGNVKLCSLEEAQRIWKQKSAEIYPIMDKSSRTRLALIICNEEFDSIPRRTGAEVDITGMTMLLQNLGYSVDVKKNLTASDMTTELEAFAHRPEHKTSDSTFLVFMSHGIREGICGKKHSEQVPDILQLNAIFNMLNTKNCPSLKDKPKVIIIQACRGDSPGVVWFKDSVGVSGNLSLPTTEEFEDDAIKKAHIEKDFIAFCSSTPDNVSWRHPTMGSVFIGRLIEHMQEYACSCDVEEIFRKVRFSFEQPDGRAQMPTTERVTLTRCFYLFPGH
The arrangement: species or system Escherichia coli.

Assay [9] deals with Glycine receptor (Rattus norvegicus, UniProt P22771+P24524+P07727+P20781). The class given is cell membranes, Wistar, Spinal cord, Membrane.
Assay [10] addresses C-C chemokine receptor type 5 (Homo sapiens, UniProt P51681). The class given is cell membranes, Membrane. The conditions noted are these: hek293.
The target in assay [11] is Nitric oxide synthase 1 (Rattus norvegicus, UniProt P29476). The class given is tissue-based, Cerebellum. Note: in other assays of this panel Not Active means under 50% inhibition at 10 µM.
In assay [12] the target is Carbonic anhydrase 2 (Homo sapiens, UniProt P00918). The experiment in a line: DRUGMATRIX: Carbonic Anhydrase II enzyme inhibition (substrate: 4-Nitrophenyl acetate (4-NPA)). The class given is tissue-based, Erythrocyte. To be noted: erythrocyte; Not Active = under 50% inhibition at 10 µM.
Assay [13] can be described thus: DRUGMATRIX: Atrial Natriuretic Factor (ANF) radioligand binding (ligand: [125I] ANF (rat)). The class given is cell membranes, Cavia porcellus, Dunkin-Hartley, Adrenal gland, Membrane. To be noted: Not Active = under 50% inhibition at 10 µM.
Assay [14] in a line: DRUGMATRIX: Imidazoline I2, Central radioligand binding (ligand: [3H] Idazoxan). The class given is cell membranes, Rattus norvegicus, Wistar, Cerebral cortex, Membrane. To be noted: Not Active = under 50% inhibition at 10 µM.

Sodium-dependent dopamine transporter, sequence (Q01959 whole entry): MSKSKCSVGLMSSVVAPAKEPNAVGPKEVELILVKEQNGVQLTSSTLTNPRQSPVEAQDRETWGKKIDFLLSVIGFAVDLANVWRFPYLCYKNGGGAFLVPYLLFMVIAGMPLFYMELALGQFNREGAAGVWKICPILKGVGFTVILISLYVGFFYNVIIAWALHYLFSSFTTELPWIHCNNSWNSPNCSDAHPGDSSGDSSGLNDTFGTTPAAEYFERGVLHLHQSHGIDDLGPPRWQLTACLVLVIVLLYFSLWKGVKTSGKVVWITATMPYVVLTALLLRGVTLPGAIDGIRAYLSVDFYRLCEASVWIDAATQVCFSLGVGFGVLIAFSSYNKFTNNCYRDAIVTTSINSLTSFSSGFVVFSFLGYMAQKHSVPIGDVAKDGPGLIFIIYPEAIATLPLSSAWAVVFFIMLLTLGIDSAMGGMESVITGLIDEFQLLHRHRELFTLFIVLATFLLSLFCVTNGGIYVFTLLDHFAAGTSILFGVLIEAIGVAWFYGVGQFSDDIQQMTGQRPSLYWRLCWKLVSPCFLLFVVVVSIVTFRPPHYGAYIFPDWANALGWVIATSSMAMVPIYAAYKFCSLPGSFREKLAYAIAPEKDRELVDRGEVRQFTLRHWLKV
Vascular endothelial growth factor receptor 1, sequence (P17948 whole entry): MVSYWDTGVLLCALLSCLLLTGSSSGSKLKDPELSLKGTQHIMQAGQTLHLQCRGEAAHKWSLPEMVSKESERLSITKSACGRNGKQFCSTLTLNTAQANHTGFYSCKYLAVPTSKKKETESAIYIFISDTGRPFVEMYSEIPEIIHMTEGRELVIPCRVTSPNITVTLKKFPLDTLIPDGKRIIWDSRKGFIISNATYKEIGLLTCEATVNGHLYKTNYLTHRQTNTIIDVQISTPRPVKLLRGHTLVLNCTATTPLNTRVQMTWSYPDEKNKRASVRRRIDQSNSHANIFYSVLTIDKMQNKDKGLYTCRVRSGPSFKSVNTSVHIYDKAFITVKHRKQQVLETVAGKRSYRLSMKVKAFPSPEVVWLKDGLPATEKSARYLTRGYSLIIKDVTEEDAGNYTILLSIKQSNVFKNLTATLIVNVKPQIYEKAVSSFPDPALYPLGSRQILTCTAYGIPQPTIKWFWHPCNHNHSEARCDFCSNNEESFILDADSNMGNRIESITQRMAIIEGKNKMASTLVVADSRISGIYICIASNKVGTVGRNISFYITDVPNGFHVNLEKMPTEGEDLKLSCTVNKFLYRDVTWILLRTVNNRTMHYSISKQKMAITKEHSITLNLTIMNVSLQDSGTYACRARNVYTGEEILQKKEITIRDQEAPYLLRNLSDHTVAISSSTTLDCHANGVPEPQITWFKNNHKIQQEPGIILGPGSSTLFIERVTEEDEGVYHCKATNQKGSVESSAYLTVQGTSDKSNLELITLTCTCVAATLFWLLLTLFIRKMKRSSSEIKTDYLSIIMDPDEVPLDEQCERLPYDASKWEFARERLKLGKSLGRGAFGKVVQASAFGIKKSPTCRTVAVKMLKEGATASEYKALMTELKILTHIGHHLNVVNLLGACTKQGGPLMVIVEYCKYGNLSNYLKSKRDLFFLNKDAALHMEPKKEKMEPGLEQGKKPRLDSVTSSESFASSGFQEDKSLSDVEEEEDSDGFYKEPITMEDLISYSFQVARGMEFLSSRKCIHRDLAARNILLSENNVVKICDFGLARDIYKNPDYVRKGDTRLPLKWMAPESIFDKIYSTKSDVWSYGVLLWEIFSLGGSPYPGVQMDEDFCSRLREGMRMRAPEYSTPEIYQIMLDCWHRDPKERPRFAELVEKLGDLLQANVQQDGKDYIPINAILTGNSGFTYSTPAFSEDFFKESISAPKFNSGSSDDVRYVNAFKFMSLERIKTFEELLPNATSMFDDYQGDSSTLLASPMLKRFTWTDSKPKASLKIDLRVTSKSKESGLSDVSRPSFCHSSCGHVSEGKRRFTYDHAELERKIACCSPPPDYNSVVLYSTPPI
Nitric oxide synthase 1, sequence (P29476 whole entry): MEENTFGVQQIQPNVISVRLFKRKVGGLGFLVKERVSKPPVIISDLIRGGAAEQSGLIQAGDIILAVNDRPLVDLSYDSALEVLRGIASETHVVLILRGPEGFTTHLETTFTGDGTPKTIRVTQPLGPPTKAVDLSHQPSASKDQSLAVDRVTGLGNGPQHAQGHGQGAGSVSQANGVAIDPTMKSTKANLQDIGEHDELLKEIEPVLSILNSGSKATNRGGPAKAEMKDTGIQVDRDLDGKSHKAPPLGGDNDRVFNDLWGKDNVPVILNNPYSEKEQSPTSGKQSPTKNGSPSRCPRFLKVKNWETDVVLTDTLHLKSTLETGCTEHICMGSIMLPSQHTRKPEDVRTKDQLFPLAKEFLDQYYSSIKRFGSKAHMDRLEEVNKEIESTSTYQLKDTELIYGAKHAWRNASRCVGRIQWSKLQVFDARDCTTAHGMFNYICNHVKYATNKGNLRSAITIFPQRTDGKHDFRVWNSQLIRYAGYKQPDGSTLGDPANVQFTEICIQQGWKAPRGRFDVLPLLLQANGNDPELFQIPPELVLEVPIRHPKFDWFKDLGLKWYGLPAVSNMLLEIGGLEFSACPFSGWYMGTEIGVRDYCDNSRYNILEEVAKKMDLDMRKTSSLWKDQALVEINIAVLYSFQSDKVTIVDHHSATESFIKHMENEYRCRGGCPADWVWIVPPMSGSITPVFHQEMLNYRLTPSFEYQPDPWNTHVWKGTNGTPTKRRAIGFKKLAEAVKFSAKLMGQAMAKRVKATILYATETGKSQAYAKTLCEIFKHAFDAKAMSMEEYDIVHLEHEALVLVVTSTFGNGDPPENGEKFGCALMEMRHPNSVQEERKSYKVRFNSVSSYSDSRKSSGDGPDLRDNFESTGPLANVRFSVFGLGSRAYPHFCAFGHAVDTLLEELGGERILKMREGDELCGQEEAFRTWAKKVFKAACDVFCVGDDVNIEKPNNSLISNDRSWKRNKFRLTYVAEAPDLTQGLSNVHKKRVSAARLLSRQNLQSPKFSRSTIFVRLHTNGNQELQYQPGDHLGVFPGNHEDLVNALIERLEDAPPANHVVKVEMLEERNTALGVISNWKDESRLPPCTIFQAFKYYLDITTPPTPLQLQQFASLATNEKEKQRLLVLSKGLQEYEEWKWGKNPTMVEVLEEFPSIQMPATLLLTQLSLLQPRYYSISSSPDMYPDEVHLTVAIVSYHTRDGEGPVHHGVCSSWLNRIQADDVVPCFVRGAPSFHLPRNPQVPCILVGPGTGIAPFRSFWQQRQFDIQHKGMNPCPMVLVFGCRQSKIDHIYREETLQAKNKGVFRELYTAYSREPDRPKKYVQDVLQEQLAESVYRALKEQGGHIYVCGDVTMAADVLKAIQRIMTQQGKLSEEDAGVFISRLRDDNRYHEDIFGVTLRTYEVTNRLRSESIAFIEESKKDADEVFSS
C-C chemokine receptor type 5, sequence (P51681 whole entry): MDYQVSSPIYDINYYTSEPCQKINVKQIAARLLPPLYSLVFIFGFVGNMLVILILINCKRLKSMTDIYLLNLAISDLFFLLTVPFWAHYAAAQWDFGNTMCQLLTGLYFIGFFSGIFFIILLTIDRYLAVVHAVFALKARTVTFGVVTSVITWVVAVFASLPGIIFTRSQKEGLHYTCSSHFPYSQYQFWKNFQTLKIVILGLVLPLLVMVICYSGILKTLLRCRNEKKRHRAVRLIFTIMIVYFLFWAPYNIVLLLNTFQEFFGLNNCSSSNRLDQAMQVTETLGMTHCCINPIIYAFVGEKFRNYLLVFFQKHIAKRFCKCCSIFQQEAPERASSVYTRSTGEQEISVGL

Broadly, the IC50 is the point on the concentration scale where inhibition reaches its midpoint. Usually Ki stands for a measure of affinity in units of concentration, obtained from inhibition or displacement. On to `c1ccc2[nH]c(-c3cscn3)nc2c1` [THIABENDAZOLE], for which the half-maximal inhibitory concentration (IC50) result in assay [1], in assay [2], in assay [3], in [4], in [5] and in assay [6] was “Not Active” throughout. For the same compound, the IC50 result in [7], in assay [8], in assay [9], in [10], in assay [11] and in [12] was “Not Active” in each case. In addition, the half-maximal inhibitory concentration (IC50) entry in assay [13] and in [14] was “Not Active” in each case. In addition, the Ki entry in assay [1], in [7], in assay [13] and in assay [14] was “Not Active” each time.
On to `Cc1ccc(C(=O)C(C)CN2CCCCC2)cc1` (stereo not drawn) [TOLPERISONE], for which the IC50 in assay [1] (read-out: IC50) was 3.36 µM; in [2], “Not Active”; in assay [3], “Not Active”; in [4], “Not Active”; in assay [5] it was “Not Active”; in assay [6] it was “Not Active”. The 50% inhibitory concentration (IC50) result in assay [7], in assay [8], in assay [9], in assay [10], in assay [11] and in assay [12] was “Not Active” each time. For the same compound, the 50% inhibitory concentration (IC50) entry in assay [13] and in assay [14] was “Not Active” in each case. For the same compound, the Ki is 2070 nM in assay [1] (read-out: Ki), “Not Active” in [7], “Not Active” in [13] and “Not Active” in [14].
As for `NC(CO)(CO)CO` [TROMETHAMINE], the half-inhibitory concentration (IC50) result in assay [1], in [2], in assay [3], in [4], in [5] and in assay [6] was “Not Active” throughout. Further, the IC50 result in assay [7], in assay [8], in assay [9], in assay [10], in assay [11] and in [12] was “Not Active” each time. For the same compound, the half-inhibitory concentration (IC50) result in [13] and in assay [14] was “Not Active” in each case. Also, the Ki result in assay [1], in assay [7], in [13] and in assay [14] was “Not Active” throughout.
As to `CN1[C@@H]2CC[C@H]1C[C@@H](OC(=O)c1c[nH]c3ccccc13)C2` [TROPISETRON], the concentration for half-maximal inhibition (IC50) entry in assay [1], in assay [2], in assay [3], in [4], in assay [5] and in [6] was “Not Active” each time. For the same compound, the half-inhibitory concentration (IC50) entry in [7], in assay [8], in [9], in [10], in assay [11] and in assay [12] was “Not Active” in each case. For the same compound, the IC50 result in [13] and in assay [14] was “Not Active” throughout. Moreover, the Ki entry in assay [1], in assay [7], in assay [13] and in assay [14] was “Not Active” each time.
In the case of `COc1cc(C(=O)NC2CCCNC2)cc(OC)c1OC` (stereo not drawn) [TROXIPIDE], the IC50 result in assay [1], in [2], in assay [3], in assay [4], in assay [5] and in [6] was “Not Active” each time. Also, the IC50 result in assay [7], in [8], in assay [9], in assay [10], in assay [11] and in [12] was “Not Active” in each case. The half-maximal inhibitory concentration (IC50) result in assay [13] and in assay [14] was “Not Active” each time. The inhibitory constant (Ki) result in assay [1], in [7], in [13] and in assay [14] was “Not Active” in each case.
With `CC(C)[C@H](N)C(=O)OCCOCn1cnc2c(=O)nc(N)[nH]c21` [VALACYCLOVIR], the IC50 entry in assay [1], in [2], in assay [3], in assay [4], in assay [5] and in [6] was “Not Active” throughout. Also, the IC50 result in assay [7], in assay [8], in assay [9], in assay [10], in assay [11] and in assay [12] was “Not Active” in each case. The IC50 entry in [13] and in assay [14] was “Not Active” in each case. Besides, the inhibition constant (Ki) result in assay [1], in [7], in assay [13] and in [14] was “Not Active” in each case.

The values are drawn from ChEMBL document CHEMBL1909046, “DrugMatrix in vitro pharmacology data”.
